Experimental data as given in patent publication US20120238549A1, “Nuclear Hormone Receptor Modulators” (ABBOTT LABORATORIES, priority 2011, published 2012).

target: T1, Glucocorticoid Receptor (GR) (Homo sapiens, UniProt P04150); assay: GR Florescence Polarization Assay (PolarScreen Glucocorticoid Receptor Competitor Assay, Red); conditions: Fluorescense polarization binding ranges; competition with fluorescent glucocorticoid, incubated overnight at 4° C.
T1 construct: purchased Invitrogen P2893
T1 sequence (P04150 1-777): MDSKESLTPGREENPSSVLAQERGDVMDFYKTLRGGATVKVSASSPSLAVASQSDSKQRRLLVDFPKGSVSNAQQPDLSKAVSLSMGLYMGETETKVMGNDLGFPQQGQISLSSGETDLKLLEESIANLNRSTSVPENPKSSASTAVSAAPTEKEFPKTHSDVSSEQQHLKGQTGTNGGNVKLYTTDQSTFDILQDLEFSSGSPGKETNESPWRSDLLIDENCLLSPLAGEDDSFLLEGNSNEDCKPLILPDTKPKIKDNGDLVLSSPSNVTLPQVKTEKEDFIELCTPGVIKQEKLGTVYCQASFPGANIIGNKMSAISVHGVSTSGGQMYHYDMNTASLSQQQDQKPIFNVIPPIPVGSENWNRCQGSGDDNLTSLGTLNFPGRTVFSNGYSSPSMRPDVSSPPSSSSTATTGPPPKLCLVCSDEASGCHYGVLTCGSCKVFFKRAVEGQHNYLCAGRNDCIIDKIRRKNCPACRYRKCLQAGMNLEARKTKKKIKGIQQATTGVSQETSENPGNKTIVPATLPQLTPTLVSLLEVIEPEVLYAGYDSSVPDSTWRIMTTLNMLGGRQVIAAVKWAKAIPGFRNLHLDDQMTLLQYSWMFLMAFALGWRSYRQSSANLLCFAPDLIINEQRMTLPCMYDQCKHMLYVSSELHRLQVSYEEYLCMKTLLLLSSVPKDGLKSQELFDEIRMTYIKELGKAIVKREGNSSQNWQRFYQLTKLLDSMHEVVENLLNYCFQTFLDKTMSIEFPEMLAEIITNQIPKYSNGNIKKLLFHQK
Summary of the method: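 Competitive fluorescence polarization using fluorescent glucocorticoid tracer and human GR in kit buffer. Compounds serially diluted 1:4 in DMSO, incubated with tracer and GR overnight at 4 °C before polarization read.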

| Structure (SMILES) | IC50 |
| --- | --- |
| CC[C@@]1(O)CC[C@@]2(Cc3ccccc3)c3c(cnn3C)CCC[C@H]2C1.CC[C@]1(O)CC[C@]2(Cc3ccccc3)c3c(cnn3C)CCC[C@@H]2C1 [Example 38, (6aS,8R,10aS)-10a-Benzyl-8-ethyl-1-methyl-1,4,5,6,6a,7,8,9,10,10a-decahydro-1,2-diaza-benzo[e]azulen-8-ol; compound with (6aR,8S,10aR)-10a-benzyl-8-ethyl-1-methyl-1,4,5,6,6a,7,8,9,10,10a-decahydro-1,2-diaza-benzo[e]azulen-8-ol] | 1000 to 10000 nM |
| CC[C@@]1(O)CC[C@]2(Cc3ccccc3)c3c(cnn3C)CCC[C@@H]2C1.CC[C@]1(O)CC[C@@]2(Cc3ccccc3)c3c(cnn3C)CCC[C@H]2C1 [Example 39, (6aS,8S,10aS)-10a-Benzyl-8-ethyl-1-methyl-1,4,5,6,6a,7,8,9,10,10a-decahydro-1,2-diaza-benzo[e]azulen-8-ol; compound with (6aR,8R,10aR)-10a-benzyl-8-ethyl-1-methyl-1,4,5,6,6a,7,8,9,10,10a-decahydro-1,2-diaza-benzo[e]azulen-8-ol] | > 10000 nM |
| CC[C@@]1(O)CC[C@@]2(Cc3ccccc3)c3nn(C)cc3CCC[C@H]2C1.CC[C@]1(O)CC[C@]2(Cc3ccccc3)c3nn(C)cc3CCC[C@@H]2C1 [Example 40, (6aS,8R,10aS)-10a-Benzyl-8-ethyl-2-methyl-2,4,5,6,6a,7,8,9,10,10a-decahydro-1,2-diaza-benzo[e]azulen-8-ol; compound with (6aR,8S,10aR)-10a-benzyl-8-ethyl-2-methyl-2,4,5,6,6a,7,8,9,10,10a-decahydro-1,2-diaza-benzo[e]azulen-8-ol] | > 10000 nM |
| CC[C@@]1(O)CC[C@]2(Cc3ccccc3)c3nn(C)cc3CCC[C@@H]2C1.CC[C@]1(O)CC[C@@]2(Cc3ccccc3)c3nn(C)cc3CCC[C@H]2C1 [Example 41, (6aS,8S,10aS)-10a-benzyl-8-ethyl-2-methyl-2,4,5,6,6a,7,8,9,10,10a-decahydro-1,2-diaza-benzo[e]azulen-8-ol; compound with (6aR,8R,10aR)-10a-benzyl-8-ethyl-2-methyl-2,4,5,6,6a,7,8,9,10,10a-decahydro-1,2-diaza-benzo[e]azulen-8-ol] | > 10000 nM |
| Cc1ncccc1NC(=O)c1ccc2c(c1)CCC[C@H]1C[C@@](O)(c3ccccc3)[C@H](O)C[C@@]21Cc1ccccc1 [Example 43, (7aS,9R,10R,11aR)-11a-Benzyl-9,10-dihydroxy-9-phenyl-6,7,7a,8,9,10,11,11a-octahydro-5H-dibenzo[a,c]cycloheptene-3-carboxylic acid (2-methyl-pyridin-3-yl)-amide; compound with (7aR,9S,10S,11aS)-11a-benzyl-9,10-dihydroxy-9-phenyl-6,7,7a,8,9,10,11,11a-octahydro-5H-dibenzo[a,c]cycloheptene-3-carboxylic acid (2-methyl-pyridin-3-yl)-amide] | 100 to 1000 nM |
| CC[C@]1(O)CC[C@]2(CC)c3ccc(C(=O)Nc4cccnc4C)cc3CCC[C@@H]2C1 [Example 46] | 100 to 1000 nM |
| CC[C@]12CC[C@@](O)(CC(C)C)C[C@H]1CCCc1cc(C(=O)Nc3cccnc3C)ccc12 [Example 48] | 100 to 1000 nM |
| CC[C@]12CC[C@@](O)(CC3CC3)C[C@H]1CCCc1cc(C(=O)Nc3cccnc3C)ccc12 [Example 50] | 100 to 1000 nM |
| Cc1ncccc1NC(=O)c1ccc2c(c1)CCC[C@@H]1C[C@](O)(CC#N)CC[C@]21Cc1ccccc1 [Example 67] | 100 to 1000 nM |
| CC[C@@]1(O)CC[C@@]2(Cc3ccccc3)c3ccc(C(=O)Nc4nncs4)cc3CCC[C@H]2C1 [Example 74] | 100 to 1000 nM |
| CC[C@@]1(O)CC[C@@]2(Cc3ccccc3)c3ccc(C(=O)NCCN4CCOCC4)cc3CCC[C@H]2C1 [Example 84] | > 10000 nM |
| CC[C@@]1(O)CC[C@@]2(Cc3ccccc3)c3ccc(C(=O)Nc4ccc(-c5ccn[nH]5)nc4C)cc3CCC[C@H]2C1 [Example 86, (7aS,9R,11aS)-11a-Benzyl-9-ethyl-9-hydroxy-6,7,7a,8,9,10,11,11a-octahydro-5H-dibenzo[a,c]cycloheptene-3-carboxylic acid [2-methyl-6-(2H-pyrazol-3-yl)-pyridin-3-yl]-amide] | < 100 nM |
| CC[C@@]1(O)CC[C@@]2(Cc3ccccc3)c3ccc(C(=O)Nc4ccc(-c5ccn[nH]5)nc4C)cc3CCC[C@H]2C1 [Example 87, (7aS,9R,11aS)-11a-Benzyl-9-ethyl-9-hydroxy-6,7,7a,8,9,10,11,11a-octahydro-5H-dibenzo[a,c]cycloheptene-3-carboxylic acid [2-methyl-6-(2H-pyrazol-3-yl)-pyridin-3-yl]-amide] | < 100 nM |
| CC[C@@]1(O)CC[C@@]2(Cc3ccccc3)c3ccc(C(=O)N(C)c4cccnc4C)cc3CCC[C@H]2C1 [Example 89, (7aS,9R,11aS)-11a-Benzyl-9-ethyl-9-hydroxy-6,7,7a,8,9,10,11,11a-octahydro-5H-dibenzo[a,c]cycloheptene-3-carboxylic acid methyl-(2-methyl-pyridin-3-yl)-amide] | 100 to 1000 nM |
| CCOC[C@@]1(O)CC[C@@]2(Cc3ccccc3)c3ccc(C(=O)Nc4cccnc4C)cc3CCC[C@H]2C1 [Example 93] | < 100 nM |
| CCCOC[C@@]1(O)CC[C@@]2(Cc3ccccc3)c3ccc(C(=O)Nc4cccnc4C)cc3CCC[C@H]2C1 [Example 98] | < 100 nM |
| CCCOC[C@]1(O)CC[C@]2(Cc3ccccc3)c3ccc(C(=O)Nc4cccnc4C)cc3CCC[C@@H]2C1 [Example 99] | 1000 to 10000 nM |
| Cc1ncccc1NC(=O)c1ccc2c(c1)CCC[C@@H]1C[C@@](O)(C(F)(F)F)CC[C@@]21Cc1ccccc1 [Example 106, (7aR,9R,11aS)-11a-Benzyl-9-hydroxy-9-trifluoromethyl-6,7,7a,8,9,10,11,11a-octahydro-5H-dibenzo[a,c]cycloheptene-3-carboxylic acid (2-methyl-pyridin-3-yl)-amide] | < 100 nM |

Now from value to molecule:

| IC50 | Structure (SMILES) |
| --- | --- |
| < 100 nM | CC[C@@]1(O)CC[C@@]2(CC)c3ccc(C(=O)Nc4cccnc4C)cc3CCC[C@H]2C1 [Example 47] |
| < 100 nM | CC[C@@]12CC[C@](O)(CC(C)C)C[C@@H]1CCCc1cc(C(=O)Nc3cccnc3C)ccc12 [Example 49] |
| < 100 nM | CC[C@@]12CC[C@](O)(CC3CC3)C[C@@H]1CCCc1cc(C(=O)Nc3cccnc3C)ccc12 [Example 51] |
| < 100 nM | Cc1ncccc1NC(=O)c1ccc2c(c1)CCC[C@H]1C[C@@](O)(CC#N)CC[C@@]21Cc1ccccc1 [Example 66] |
| < 100 nM | CC[C@@]1(O)CC[C@@]2(Cc3ccccc3)c3ccc(C(=O)Nc4cnc(C)nc4C)cc3CCC[C@H]2C1 [Example 68, (7aS,9R,11aS)-11a-Benzyl-9-ethyl-9-hydroxy-6,7,7a,8,9,10,11,11a-octahydro-5H-dibenzo[a,c]cycloheptene-3-carboxylic acid (2,4-dimethyl-pyrimidin-5-yl)-amide] |
| < 100 nM | CC[C@@]1(O)CC[C@@]2(Cc3ccccc3)c3ccc(C(=O)Nc4ncc(C)nc4C)cc3CCC[C@H]2C1 [Example 69] |
| < 100 nM | CC[C@@]1(O)CC[C@@]2(Cc3ccccc3)c3ccc(C(=O)Nc4ccncc4C)cc3CCC[C@H]2C1 [Example 70] |
| < 100 nM | CC[C@@]1(O)CC[C@@]2(Cc3ccccc3)c3ccc(C(=O)Nc4cnccc4C)cc3CCC[C@H]2C1 [Example 71] |
| < 100 nM | CC[C@@]1(O)CC[C@@]2(Cc3ccccc3)c3ccc(C(=O)Nc4ccc(C)nc4C)cc3CCC[C@H]2C1 [Example 72] |
| < 100 nM | CC[C@@]1(O)CC[C@@]2(Cc3ccccc3)c3ccc(C(=O)Nc4ncccc4C)cc3CCC[C@H]2C1 [Example 73] |
| < 100 nM | CC[C@@]1(O)CC[C@@]2(Cc3ccccc3)c3ccc(C(=O)Nc4ccnn4C)cc3CCC[C@H]2C1 [Example 75] |
| < 100 nM | CC[C@@]1(O)CC[C@@]2(Cc3ccccc3)c3ccc(C(=O)Nc4cc(C)nn4C)cc3CCC[C@H]2C1 [Example 76] |
| < 100 nM | CC[C@@]1(O)CC[C@@]2(Cc3ccccc3)c3ccc(C(=O)Nc4nnnn4C)cc3CCC[C@H]2C1 [Example 78] |
| < 100 nM | CC[C@@]1(O)CC[C@@]2(Cc3ccccc3)c3ccc(C(=O)Nc4cc(C)[nH]n4)cc3CCC[C@H]2C1 [Example 79] |
| < 100 nM | CC[C@@]1(O)CC[C@@]2(Cc3ccccc3)c3ccc(C(=O)NCc4cccnc4C)cc3CCC[C@H]2C1 [Example 83, (7aS,9R,11aS)-11a-Benzyl-9-ethyl-9-hydroxy-6,7,7a,8,9,10,11,11a-octahydro-5H-dibenzo[a,c]cycloheptene-3-carboxylic acid (2-methyl-pyridin-3-ylmethyl)-amide] |
| < 100 nM | CC[C@@]1(O)CC[C@@]2(Cc3ccccc3)c3ccc(C(=O)NC4=NC(=O)CN4C)cc3CCC[C@H]2C1 [Example 85] |
| < 100 nM | CC[C@@]1(O)CC[C@@]2(Cc3ccccc3)c3ccc(C(=O)Nc4ccc(-c5cn[nH]c5)nc4C)cc3CCC[C@H]2C1 [Example 88] |
